Assay results reported in US20150274658A1, “THERAPEUTIC LACTAMS” (Allergan, Inc., priority 2014, published 2015).

What was measured:
EP2 [1] = biological target: T1, EP2 (Homo sapiens, UniProt P43116); assay: EP2 binding (Ki)
Source text: (§1) U.S. patent application Ser. No. 11/553,143, filed on Oct. 26, 2006, incorporated by reference herein, describes the methods used to obtain the in vitro data in the table below.

EP2 [2] = biological target: T1, EP2; assay: EP2 cAMP functional assay; format: cell-based
Source text: as §1

T1 sequence (P43116 whole entry): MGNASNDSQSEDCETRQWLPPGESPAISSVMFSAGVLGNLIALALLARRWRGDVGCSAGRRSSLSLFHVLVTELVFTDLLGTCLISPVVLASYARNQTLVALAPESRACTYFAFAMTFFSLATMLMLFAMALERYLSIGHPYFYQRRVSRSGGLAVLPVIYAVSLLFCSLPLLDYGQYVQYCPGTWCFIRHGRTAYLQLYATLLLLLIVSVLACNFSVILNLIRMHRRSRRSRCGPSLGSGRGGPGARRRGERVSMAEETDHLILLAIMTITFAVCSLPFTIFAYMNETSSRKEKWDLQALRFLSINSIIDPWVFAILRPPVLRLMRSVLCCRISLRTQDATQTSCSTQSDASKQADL

| Ki (EP2 [1]) [µM] | EC50 (EP2 [2]) [µM] | SMILES |
| --- | --- | --- |
| > 10 |  | CCCCCC(O)c1ccc(N2C(=O)C(C)C[C@@H]2COCc2ccc(C(=O)O)s2)cc1 (single isomer, unassigned) [Example 2] |
|  | 0.233 | CCCCCC(O)c1ccc(N2C(=O)C(C)C[C@@H]2COCc2ccc(C(=O)O)s2)cc1 (single isomer, unassigned) [Example 1] |
